pIC50: −log10 of the molar value.
System: HBsAg
Experiment: HBsAg assay (chemiluminescence immunoassay of secreted HBsAg in HepG2.2.15 culture supernatant)
Assay type: cell-based, HBV
Conditions: HepG2.2.15 cells, CLIA kit
Procedure, shortened: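 IC50 came from dose-response curves of HBsAg in culture supernatant, measured semi-quantitatively by chemiluminescent immunoassay. The HBV-producing HepG2.2.15 line was dosed in duplicate with a three-fold compound dilution series, with DMSO at 1% final and DMSO alone as the no-drug control.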

[1] = HBsAg secretion reduced by 50% vs no drug control
[2] = Hepatitis B virus, HepG2.2.15, HBsAg secretion reduced by 50% vs no drug control

In the case of COCCCOc1cc2c(cc1Cl)-c1cc(=O)c(C(=O)O)cn1C(C(C)(C)C)C2 (single isomer, unassigned; (-)) [Example 204, (−)-6-tert-butyl-10-chloro-9-(3-methoxypropoxy)-2-oxo-6,7-dihydrobenzo[a]quinolizine-3-carboxylic acid], the pIC50 [1] was 6.85.

In the case of COCCCOc1cc2c(cc1Cl)-c1cc(=O)c(C(=O)O)cn1C(C1(C)CC1)C2 (single isomer, unassigned; (-)) [Example 207, (−)-10-chloro-9-(3-methoxypropoxy)-6-(1-methylcyclopropyl)-2-oxo-6,7-dihydrobenzo[a]quinolizine-3-carboxylic acid], the pIC50 [1] was 7.40.

With COCCCOc1cc2c(cc1OC)-c1cc(=O)c(C(=O)O)cn1C(C1(C)CC1)C2 (single isomer, unassigned; (-)) [Example 210, (−)-10-methoxy-9-(3-methoxypropoxy)-6-(1-methylcyclopropyl)-2-oxo-6,7-dihydrobenzo[a]quinolizine-3-carboxylic acid] the pIC50 [1] was 7.04.

With COCCCOc1cc2c(c(F)c1F)-c1cc(=O)c(C(=O)O)cn1C(C(C)C)C2 (single isomer, unassigned; (-)) [Example 215, (−)-10,11-difluoro-6-isopropyl-9-(3-methoxypropoxy)-2-oxo-6,7-dihydrobenzo[a]quinolizine-3-carboxylic acid] the pIC50 [1] was 5.94.

COc1cc2c(cc1OCc1ccccc1)CC(C)n1cc(C(=O)O)c(=O)cc1-2 (stereo not drawn) [Example 1, 9-benzyloxy-10-methoxy-6-methyl-2-oxo-6,7-dihydrobenzo[a]quinolizine-3-carboxylic acid] was tested, and the pIC50 [2] was 7.89.

Work on CCOc1cc2c(cc1OC)-c1cc(=O)c(C(=O)O)cn1C(C)C2 (stereo not drawn) [Example 4, 9-ethoxy-10-methoxy-6-methyl-2-oxo-6,7-dihydrobenzo[a]quinolizine-3-carboxylic acid] yielded a pIC50 [2] of 7.01.

CCC1Cc2cc(OCc3ccccc3)c(OC)cc2-c2cc(=O)c(C(=O)O)cn21 (stereo not drawn) [Example 8, 9-benzyloxy-6-ethyl-10-methoxy-2-oxo-6,7-dihydrobenzo[a]quinolizine-3-carboxylic acid] gave a pIC50 [1] of 6.82.

CCC1Cc2cc(OCCc3ccccc3)c(OC)cc2-c2cc(=O)c(C(=O)O)cn21 (stereo not drawn) [Example 14, 6-ethyl-10-methoxy-2-oxo-9-(2-phenylethoxy)-6,7-dihydrobenzo[a]quinolizine-3-carboxylic acid] gave a pIC50 [2] of 7.85.

CCCCOc1cc2c(cc1OC)-c1cc(=O)c(C(=O)O)cn1C(CC)C2 (stereo not drawn) [Example 15, 9-butoxy-6-ethyl-10-methoxy-2-oxo-6,7-dihydrobenzo[a]quinolizine-3-carboxylic acid] showed a pIC50 [2] of 7.80.

Molecule CCC1Cc2cc(OCCC3CCCCC3)c(OC)cc2-c2cc(=O)c(C(=O)O)cn21 (stereo not drawn) [Example 16, 9-(2-cyclohexylethoxy)-6-ethyl-10-methoxy-2-oxo-6,7-dihydrobenzo[a]quinolizine-3-carboxylic acid] has a pIC50 [2] of 7.82.

C#CCOc1cc2c(cc1OC)-c1cc(=O)c(C(=O)O)cn1C(CC)C2 (stereo not drawn) [Example 17, 6-ethyl-10-methoxy-2-oxo-9-prop-2-ynoxy-6,7-dihydrobenzo[a]quinolizine-3-carboxylic acid] showed a pIC50 [2] of 6.72.

With CCC1Cc2cc(OCC(=O)N3CCCC3)c(OC)cc2-c2cc(=O)c(C(=O)O)cn21 (stereo not drawn) [Example 18, 6-ethyl-10-methoxy-2-oxo-9-(2-oxo-2-pyrrolidin-1-yl-ethoxy)-6,7-dihydrobenzo[a]quinolizine-3-carboxylic acid] the pIC50 [2] was 5.02.

CCC1Cc2cc(OCCOCCOC)c(OC)cc2-c2cc(=O)c(C(=O)O)cn21 (stereo not drawn) [Example 19, 6-ethyl-10-methoxy-9-[2-(2-methoxyethoxyl)ethoxy]-2-oxo-6,7-dihydrobenzo[a]quinolizine-3-carboxylic acid] was tested, and the pIC50 [2] was 6.60.

CCC1Cc2cc(OCCN3CCOCC3)c(OC)cc2-c2cc(=O)c(C(=O)O)cn21 (stereo not drawn) [Example 20, 6-ethyl-10-methoxy-9-(2-morpholinoethoxy)-2-oxo-6,7-dihydrobenzo[a]quinolizine-3-carboxylic acid] gave a pIC50 [2] of 6.66.

Molecule CCC1Cc2cc(OCCO)c(OC)cc2-c2cc(=O)c(C(=O)O)cn21 (stereo not drawn) [Example 21, 6-ethyl-9-(2-hydroxyethoxy)-10-methoxy-2-oxo-6,7-dihydrobenzo[a]quinolizine-3-carboxylic acid] has a pIC50 [2] of 6.35.

CCC1Cc2cc(OCC(C)(C)CO)c(OC)cc2-c2cc(=O)c(C(=O)O)cn21 (stereo not drawn) [Example 22, 6-ethyl-9-(3-hydroxy-2,2-dimethyl-propoxy)-10-methoxy-2-oxo-6,7-dihydrobenzo[a]quinolizine-3-carboxylic acid] gave a pIC50 [1] of 7.41.

CCC1Cc2cc(OCCCO)c(OC)cc2-c2cc(=O)c(C(=O)O)cn21 (stereo not drawn) [Example 25, 6-ethyl-9-(3-hydroxypropoxy)-10-methoxy-2-oxo-6,7-dihydrobenzo[a]quinolizine-3-carboxylic acid] gave a pIC50 [2] of 6.81.

Work on CCC1Cc2cc(OCCn3ccnc3)c(OC)cc2-c2cc(=O)c(C(=O)O)cn21 (stereo not drawn) [Example 26, 6-ethyl-9-(2-imidazol-1-ylethoxy)-10-methoxy-2-oxo-6,7-dihydrobenzo[a]quinolizine-3-carboxylic acid] yielded a pIC50 [2] of 5.78.

With CCC1Cc2cc(OCCOC)c(OC)cc2-c2cc(=O)c(C(=O)O)cn21 (stereo not drawn) [Example 27, 6-ethyl-10-methoxy-9-(2-methoxyethoxy)-2-oxo-6,7-dihydrobenzo[a]quinolizine-3-carboxylic acid] the pIC50 [1] was 7.25.

CCOc1cc2c(cc1OC)-c1cc(=O)c(C(=O)O)cn1C(CC)C2 (stereo not drawn) [Example 36, 9-ethoxy-6-ethyl-10-methoxy-2-oxo-6,7-dihydrobenzo[a]quinolizine-3-carboxylic acid] showed a pIC50 [1] of 7.28.

CCC1Cc2cc(OCCCOC)c(OC)cc2-c2cc(=O)c(C(=O)O)cn21 (stereo not drawn) [Example 39, 6-ethyl-10-methoxy-9-(3-methoxypropoxy)-2-oxo-6,7-dihydrobenzo[a]quinolizine-3-carboxylic acid] gave a pIC50 [1] of 7.80.

With CCOCCOc1cc2c(cc1OC)-c1cc(=O)c(C(=O)O)cn1C(CC)C2 (stereo not drawn) [Example 42, 9-(2-ethoxyethoxy)-6-ethyl-10-methoxy-2-oxo-6,7-dihydrobenzo[a]quinolizine-3-carboxylic acid] the pIC50 [1] was 7.24.

Work on CCC1Cc2cc(OCC(F)F)c(OC)cc2-c2cc(=O)c(C(=O)O)cn21 (stereo not drawn) [Example 45, 9-(2,2-difluoroethoxy)-6-ethyl-10-methoxy-2-oxo-6,7-dihydrobenzo[a]quinolizine-3-carboxylic acid] yielded a pIC50 [1] of 6.98.

CCC1Cc2cc(OCC3CCOCC3)c(OC)cc2-c2cc(=O)c(C(=O)O)cn21 (stereo not drawn) [Example 48, 6-ethyl-10-methoxy-2-oxo-9-(tetrahydropyran-4-ylmethoxy)-6,7-dihydrobenzo[a]quinolizine-3-carboxylic acid] was tested, and the pIC50 [1] was 7.62.

For CCC1Cc2cc(OCCN3CCCC3)c(OC)cc2-c2cc(=O)c(C(=O)O)cn21 (stereo not drawn) [Example 51, 6-ethyl-10-methoxy-2-oxo-9-(2-pyrrolidin-1-ylethoxy)-6,7-dihydrobenzo[a]quinolizine-3-carboxylic acid], the pIC50 [2] was 5.41.

Molecule CCC1Cc2cc(OCCCC#N)c(OC)cc2-c2cc(=O)c(C(=O)O)cn21 (stereo not drawn) [Example 52, 9-(3-cyanopropoxy)-6-ethyl-10-methoxy-2-oxo-6,7-dihydrobenzo[a]quinolizine-3-carboxylic acid] has a pIC50 [2] of 6.77.

For CCC1Cc2cc(OCCS(C)(=O)=O)c(OC)cc2-c2cc(=O)c(C(=O)O)cn21 (stereo not drawn) [Example 53, 6-ethyl-10-methoxy-9-(2-methylsulfonylethoxy)-2-oxo-6,7-dihydrobenzo[a]quinolizine-3-carboxylic acid], the pIC50 [2] was 5.81.

Molecule CCC1Cc2cc(OCCN3CCCC3=O)c(OC)cc2-c2cc(=O)c(C(=O)O)cn21 (stereo not drawn) [Example 54, 6-ethyl-10-methoxy-2-oxo-9-[2-(2-oxopyrrolidin-1-yl)ethoxy]-6,7-dihydrobenzo[a]quinolizine-3-carboxylic acid] has a pIC50 [2] of 6.89.

Work on CC[C@@H]1Cc2cc(OCCN3CCCC3=O)c(OC)cc2-c2cc(=O)c(C(=O)O)cn21 [Example 55, (+)-6-ethyl-10-methoxy-2-oxo-9-[2-(2-oxopyrrolidin-1-yl)ethoxy]-6,7-dihydrobenzo[a]quinolizine-3-carboxylic acid] yielded a pIC50 [2] of 6.14.

CCC1Cc2cc(OCCNS(C)(=O)=O)c(OC)cc2-c2cc(=O)c(C(=O)O)cn21 (stereo not drawn) [Example 56, 6-ethyl-9-[2-(methanesulfonamido)ethoxy]-10-methoxy-2-oxo-6,7-dihydrobenzo[a]quinolizine-3-carboxylic acid] showed a pIC50 [2] of 5.48.

Work on CCC1Cc2cc(OCC3(C#N)CC3)c(OC)cc2-c2cc(=O)c(C(=O)O)cn21 (stereo not drawn) [Example 57, 9-[(1-cyanocyclopropyl)methoxy]-6-ethyl-10-methoxy-2-oxo-6,7-dihydrobenzo[a]quinolizine-3-carboxylic acid] yielded a pIC50 [2] of 6.77.

CC1Cc2cccc(Br)c2-c2cc(=O)c(C(=O)O)cn21 (stereo not drawn) [Example 60, 11-bromo-6-methyl-2-oxo-6,7-dihydrobenzo[a]quinolizine-3-carboxylic acid] showed a pIC50 [2] of 5.91.

With C[C@@H]1Cc2cc(Br)ccc2-c2cc(=O)c(C(=O)O)cn21 [Example 61, (+)-9-bromo-6-methyl-2-oxo-6,7-dihydrobenzo[a]quinolizine-3-carboxylic acid] the pIC50 [2] was 5.22.

CC1Cc2cc(N3CCN(C(=O)OC(C)(C)C)CC3)ccc2-c2cc(=O)c(C(=O)O)cn21 (stereo not drawn) [Example 62, 9-(4-tert-butoxycarbonylpiperazin-1-yl)-6-methyl-2-oxo-6,7-dihydrobenzo[a]quinolizine-3-carboxylic acid] was tested, and the pIC50 [2] was 6.00.

CC1Cc2cc(N(C)Cc3ccccc3)ccc2-c2cc(=O)c(C(=O)O)cn21 (stereo not drawn) [Example 63, 9-[benzyl(methyl)amino]-6-methyl-2-oxo-6,7-dihydrobenzo[a]quinolizine-3-carboxylic acid] gave a pIC50 [2] of 5.14.

For CNc1cccc2c1-c1cc(=O)c(C(=O)O)cn1C(C)C2 (stereo not drawn) [Example 64, 6-methyl-11-(methylamino)-2-oxo-6,7-dihydrobenzo[a]quinolizine-3-carboxylic acid], the pIC50 [2] was 4.60.

Reference: patent US9458153B2, “Dihydroquinolizinones for the treatment and prophylaxis of hepatitis B virus infection” (Hoffmann-La Roche Inc., priority 2014, dated 2016)
